“Also recorded” adds a separate entry of the source.
Experiments:
[1] = PD study: compound concentration in mouse liver; format: in vivo, C57BL/6 mice; details: male, C57BL/6, mouse, 50 mg/kg, 50 mpk oral
Experimental: 9-10 week old male C57BL/6 mice were dosed orally with 50 mg/kg of vehicle or compound formulated in 5% w/v tween 80 and 0.5% methyl cellulose. At indicated time points (3 and 6 hours or or 4 and 8 hours post-dosing as shown in the results below), whole blood was collected, animal was sacrificed and liver was collected. Blood samples were transferred to vials containing 4 μL of 10% w/v EDTA, centrifuged at 6000 rpm for 8 in below 10° C. to obtain plasma. Samples were frozen and later processed for HMOX1 protein levels as indicated below: […]

HbSS Townes sickle mice [2] = assay: Heme-induced vaso-occlusion (stasis) in HbSS Townes sickle mice; format: in vivo; details: 10, 25, 50 mg/kg PO once daily for 8 days, 1 h after heme infusion
Source text: Townes-SS mice were gavaged once daily with Vehicle or the compound of Example 17 for 8 days. After the last gavage dorsal skin-fold chambers were implanted on the mice and 20-22 flowing venules were selected and mapped in the subcutaneous skin using intravital microscopy. Mice were then infused via the tail vein with Panhematin (3.2 μmots heme/kg body weight). One hour after infusion each venule was re-examined for microvascular stasis (no flow) and data are expressed as % stasis. Stasis values are means+SD. One-Way ANOVA with Dunnett's Multiple comparison to Vehicle ****P<0.0001
(§1) Dosing Scheme of HMOX Inducers to HbSS Townes Sickle Mice
(§2) HbSS Townes sickle mice were oral gavaged once daily with Vehicle or the compound of Example 17 listed below for 8 days. To minimize experimental inconsistency, fresh formulation was prepared every day and vortexed prior to drawing test article into syringe for each dosing, and dosing was performed by the same individual throughout the day. The last-day dose was administered by oral gavage 4 hours prior to hemin infusion described below. • 1. […]
Male and female sickle mice, approximately 12 weeks of age, were weighed before surgery. […] All of the selected venules were re-examined at 1 h after hemin infusion, and the number of static (no flow) venules was counted and expressed as percent stasis. […]

HbSS Townes sickle mice [3] = assay: F-cells (HbF-containing red blood cells) in HbSS Townes sickle mice; format: in vivo
Source text: Blood smears were made using heparinized whole blood for F-cells staining. Stained F-cells and total red blood cells were counted on the blood smears in four fields; mean=77 red blood cells/field. F-cells are expressed as a percentage of total red blood cells. Values are means+SD. One-Way ANOVA with Dunnett's Multiple comparison to Vehicle **p≤0.01, ***p≤0.001, ****p≤0.0001
as §1, §2
F-cells were stained on whole blood smears by the Kleihauer-Betke method using a fetal cell stain kit (Simmler) according to the manufacturer's instructions. F-cells and total erythrocytes were counted in 4 separate microscopic fields at 100× magnification for each mouse. The F-cells were expressed as a percentage of total erythrocytes (i.e., red blood cells). […]

[4] = system: Primary human pulmonary artery endothelial cells (HPAEC); assay: Glutathione (GSH) levels in primary human endothelial cells under hemin stress; format: cell-based
Experimental: Example 149. Glutathione (GSH) Levels in Primary Human Endothelial Cells
Primary human pulmonary artery endothelial cells (HPAEC) (Lonza # CC-2530) cultured in endothelial cell growth medium-2 (EGM2 media, Lonza # CC-3162) were seeded in white 96-well plate (Corning® #3610) at 12.5 k cells per well and placed at 37° C. in 5% CO2. 18-24 hr post seeding, cells were treated with the compound of Example 17 via media change. 24 hr post treatment with the compound, cells were treated using a freshly prepared hemin stock (Sigma-Aldrich #51280 in 0.1N NaOH) alone or with the compound of Example 17. […] Media was aspirated off and GSH-Glo™ Glutathione Assay (Promega # V6911) was run following the manufacturer's protocol. White bottom plate seal (PerkinElmer #6005199) was used during read. Analysis was done using Softmax Pro.

FTH1 = FTH1 mRNA expression in HepG2 cells (Nanostring); format: cell-based, human; details: 24 hours treatment
Experimental: RNA Isolation and Quantification of Gene Expression
HepG2 cells were seeded at 250 k/well in 12-well tissue culture plates coated with collagen (collagen I, rat tail (thin plate coating); ENZO Life Sciences) for approximately 24 hours. The seeded cells were then treated with dose titration of the compound of Example 17 or dimethyl fumarate (DMF) (a Nrf2 activator; Fisher Scientific) via media change, with biological triplicates performed for each treatment. After approximately 24 hours of treatment, cells were visually inspected to confirm that no toxicity occurred with compound treatment. The treated cells were washed with PBS, aspirated, parafilmed and frozen at −80° C. prior to RNA isolation. RNA was isolated using Machery-Nagel isolation kit (NucleoSpin® RNA: catalog 740955.250) and then quantitated using ThermoFisher Nanodrop.
RNA was diluted for Nanostring gene expression analysis. The diluted RNA at an input of 200 ng RNA was run on a Nanostring instrument, which was supported with nCounter® SPRINT Profiler System and nSolver4.0 Software, nCounter® SPRINT Cartridge, nCounter® SPRINT Reagent Pack, and nCounter® SPRINT Hybridization Buffer. Analysis was done manually using raw data obtained from nSolver4.0 Software. CLTC, POLR2A, RPL27 and TBP were used as reference genes for normalization. Data was graphed as fold change compared to DMSO treatment. […]

Cn1c(Nc2nc3ccccc3o2)nc2cc(C(=O)NCCOCCO)ccc21 [Example 17, 2-(benzo[d]oxazol-2-ylamino)-N-(2-(2-hydroxyethoxy)ethyl)-1-methyl-1H-benzo[d]imidazole-5-carboxamide]
concentration at 4 h ([1]; 4 hours (Study 702), read-out: Liver Conc uM (4 h)): 11 µM | concentration at 8 h ([1]; 8 hours (Study 702), read-out: Liver Conc uM (8 h)): 4.9 µM | microvascular stasis compared with Vehicle (in words) (HbSS Townes sickle mice [2]): significantly reduced; also recorded: dose responsively inhibit | percent F-cells compared with vehicle (in words) (HbSS Townes sickle mice [3]; 10, 25, 50 mg/kg PO once daily for 8 days): significantly increased; also recorded: more than doubled; also recorded: did not appear to be dose responsive; also recorded: increase | percent F-cells (of total red blood cells) (HbSS Townes sickle mice [3]; all doses tested (10, 25, 50 mg/kg PO, 8 days)): 55-70% | GSH levels / protection from hemin mediated oxidative stress (in words) ([4]; 24 hr pre-incubation, 30 min hemin stress): protects these cells from hemin mediated oxidative stress | toxicity by visual inspection of cells ([4]; after 30 min of hemin stress): no toxicity | FTH1 expression fold increase (in words) (FTH1): comparable fold increases

— patent publication US10766888B1, “HMOX1 inducers” (Mitobridge Inc., priority 2019, dated 2020)
